This note sets out measurements from publication PMC2248166, “Quantitative peptide binding motifs for 19 human and mouse MHC class I molecules derived using positional scanning combinatorial peptide libraries” (Immunome Research, 2008).

Where a SMILES comes first, the peptide text is derived from it.

The target in one test is HLA A*3201 (Homo sapiens, UniProt P04439, A270S/D101S/D185E/E176V/E277Q/F133L/G103R/G107R/G231S/H175R/I121M/I218V/I322F/K168Q/L105A/L300P/L318F/M331R/P208A/P217A/Q94H/R106L/R138Q/S129P/T104I/T323A/T345S/V100E/V321M/V358M). The test can be described thus: biochemical. Type of test: binding.
For another test, the target named is HLA B*1503 (Homo sapiens, UniProt P01889, A329T/A93T/A95T/C349S/D201E/D98Y/E187L/E204Q/K202T/N87E/Q94N/R155S/R180L/S121R/S35A/V306I/V36M/Y140S/Y91S). Nature of the test: biochemical. Type of test: binding.

Take `CC(C)[C@H](NC(=O)[C@H](Cc1ccc(O)cc1)NC(=O)[C@@H](NC(=O)[C@@H](N)CCCNC(=N)N)C(C)C)C(=O)NCC(=O)N[C@@H](CC(N)=O)C(=O)N[C@H](C(=O)N[C@@H](C)C(=O)N[C@@H](Cc1c[nH]c2ccccc12)C(=O)O)C(C)C` [3102.0520] (H-RVYVGNVAW-OH): the IC50 – broadly, the concentration at which inhibition is half-maximal – against HLA A*3201 is 1.1 nM.

At HLA A*3201, `CC[C@H](C)[C@H](NC(=O)[C@H](CCCCN)NC(=O)[C@H](CC(C)C)NC(=O)[C@@H](NC(=O)[C@H](Cc1ccc(O)cc1)NC(=O)[C@H](CC(N)=O)NC(=O)[C@H](CC(N)=O)NC(=O)[C@H](CC(C)C)NC(=O)[C@@H](N)CC(C)C)[C@@H](C)O)C(=O)O` [3102.0521] (H-LLNNYTLKI-OH) yielded a half-inhibitory concentration (IC50) of 25 nM.

Regarding `CC[C@H](C)[C@H](NC(=O)[C@H](CCCCN)NC(=O)[C@H](Cc1ccc(O)cc1)NC(=O)[C@H](Cc1ccccc1)NC(=O)[C@H](CCSC)NC(=O)[C@H](Cc1ccc(O)cc1)NC(=O)[C@H](CCC(N)=O)NC(=O)[C@@H](N)CCCNC(=N)N)C(=O)N[C@@H](Cc1ccccc1)C(=O)O` [3102.1055] (H-RQYMFYKIF-OH), the values for the concentration for half-maximal inhibition (IC50) against HLA A*3201 and against HLA B*1503 were 19 nM and 0.07 nM, respectively.

`CC[C@H](C)[C@H](NC(=O)[C@H](C)NC(=O)[C@H](Cc1ccccc1)NC(=O)[C@H](CCC(N)=O)NC(=O)[C@@H](N)Cc1c[nH]c2ccccc12)C(=O)N[C@@H](Cc1c[nH]cn1)C(=O)N[C@@H](Cc1ccc(O)cc1)C(=O)N[C@@H](CO)C(=O)N[C@@H](Cc1ccccc1)C(=O)O` [3102.1096] (H-WQFAIHYSF-OH): the IC50 stood at 2.8 nM at HLA A*3201 and 4.5 nM against HLA B*1503.

Compound `CC[C@H](C)[C@H](N)C(=O)N[C@@H](CC(C)C)C(=O)N[C@@H](Cc1ccccc1)C(=O)N[C@@H](Cc1ccc(O)cc1)C(=O)N[C@@H](Cc1ccccc1)C(=O)N[C@@H](C)C(=O)N[C@@H](CC(N)=O)C(=O)NCC(=O)N[C@H](C(=O)O)[C@@H](C)CC` [3102.1147] (H-ILFYFANGI-OH) yielded an IC50 at HLA A*3201 of 93 nM.

Consider `CC[C@H](C)[C@H](N)C(=O)N[C@@H](CCSC)C(=O)N[C@@H](Cc1ccccc1)C(=O)N[C@@H](C)C(=O)N[C@@H](CCCCN)C(=O)N[C@H](C(=O)N[C@@H](CC(C)C)C(=O)N[C@@H](CC(=O)O)C(=O)N[C@@H](Cc1ccccc1)C(=O)O)[C@@H](C)O` [3102.1190] (H-IMFAKTLDF-OH), for which the IC50 against HLA A*3201 worked out at 6.8 nM; at HLA B*1503, 0.31 nM.

Consider `CC[C@H](C)[C@H](NC(=O)[C@H](Cc1ccc(O)cc1)NC(=O)[C@H](Cc1c[nH]c2ccccc12)NC(=O)[C@H](CCSC)NC(=O)[C@@H](N)CO)C(=O)N1CCC[C@H]1C(=O)N[C@@H](CC(N)=O)C(=O)N[C@H](C(=O)N[C@@H](Cc1ccccc1)C(=O)O)C(C)C` [3102.1192] (H-SMWYIPNVF-OH), for which the IC50 against HLA A*3201 turned out to be 5.1 nM; against HLA B*1503, 0.72 nM.

Turning to `CC[C@H](C)[C@H](N)C(=O)N[C@@H](CCSC)C(=O)N[C@@H](Cc1ccccc1)C(=O)N[C@@H](CO)C(=O)N[C@@H](CCCCN)C(=O)N[C@@H](CO)C(=O)N[C@@H](CC(C)C)C(=O)N[C@@H](CC(N)=O)C(=O)N[C@@H](Cc1ccccc1)C(=O)O` [3102.1204] (H-IMFSKSLNF-OH), the IC50 at HLA A*3201 amounted to 15 nM; against HLA B*1503, 0.23 nM.

Turning to `CC(C)C[C@H](NC(=O)[C@@H](NC(=O)[C@H](CC(N)=O)NC(=O)[C@H](C)NC(=O)[C@H](CC(N)=O)NC(=O)[C@H](Cc1ccc(O)cc1)NC(=O)[C@H](Cc1ccccc1)NC(=O)[C@H](CCC(N)=O)NC(=O)[C@@H](N)CCCNC(=N)N)C(C)C)C(=O)O` [3102.1205] (H-RQFYNANVL-OH), the IC50 at HLA A*3201 came to 37 nM; at HLA B*1503, 0.24 nM.

For the compound `CC[C@H](C)[C@H](NC(=O)[C@@H](NC(=O)[C@@H]1CCCN1C(=O)[C@H](CC(C)C)NC(=O)[C@H](Cc1ccccc1)NC(=O)[C@H](CO)NC(=O)[C@H](CCSC)NC(=O)[C@@H](N)CCCCN)[C@@H](C)CC)C(=O)N[C@@H](Cc1ccccc1)C(=O)O` [3102.1291] (H-KMSFLPIIF-OH), the IC50 on HLA A*3201 was 6.7 nM; against HLA B*1503 it was 0.08 nM.
